Literature values, collected in US20200392379A1, “TRANSFER FILM, METHOD FOR MANUFACTURING LAMINATE, LAMINATE, CAPACITIVE INPUT DEVICE, AND IMAGE DISPLAY DEVICE” (FUJIFILM Corporation, priority 2018, published 2020).

| SMILES | pKa of conjugate acid |
| --- | --- |
| c1ccc2[nH]nnc2c1 [1,2,3-Benzotriazole] | 1.17 |
| Sc1nnc(S)s1 [1,3,4-Thiadiazole-2,5-dithiol] | −2.11 |
| O=C(O)CC(C(=O)O)n1nnc2ccccc21 (centres unmarked) [1-(1′,2′-Dicarboxyethyl)benzotriazole] | 0.09 |
| O=C(O)CC(Cn1nnc2ccccc21)C(=O)O (centres unmarked) [1-(2,3-Dicarboxypropyl)benzotriazole] | 1.21 |
| Cn1nnnc1S [1-Methyl-5-mercaptotetrazole] | −2.98 |
| CCCCC(CC)CN(CC(CC)CCCC)Cn1nnc2ccccc21 (centres unmarked) [1-[N,N-bis(2-ethylhexyl)aminomethyl]benzotriazole] | 6.68 |
| Cc1cc(Cn2nnc3ccccc32)c(O)c(Cn2nnc3ccccc32)c1 [2,6-Bis[(1H-benzotriazol-1-yl)methyl]-4-methylphenol] | 1.49 |
| CSc1nnc(N)s1 [2-Amino-5-methylthio-1,3,4-thiadiazole] | 2.12 |
| Sc1nncs1 [2-Mercapto-1,3,4-thiadiazole] | −1.09 |
| CSc1nnc(S)s1 [2-Mercapto-5-methylthio-1,3,4-thiadiazole] | −1.32 |
| Sc1nc2ccccc2[nH]1 [2-Mercaptobenzimidazole] | 2.38 |
| Cc1ncc[nH]1 [2-Methylimidazole] | 8.15 |
| CSc1nc(N)n[nH]1 [3-Amino-5-methylthio-1H-1,2,4-triazole] | 2.99 |
| Sc1nc[nH]n1 [3-Mercapto-1,2,4-triazole] | 1.30 |
| Nc1cnns1 [5-Amino-1,2,3-thiadiazole] | 0.34 |
| Nc1nnn[nH]1 [5-Amino-1H-tetrazole] | 1.29 |
| Nc1ccc2[nH]c(S)nc2c1 [5-Amino-2-mercaptobenzimidazole] | 3.02 |
| Sc1nnnn1-c1ccccc1 [5-Mercapto-1-phenyl-1H-tetrazole] | −4.56 |
| c1ccc(-c2nnn[nH]2)cc1 [5-Phenyl-1H-tetrazole] | −2.88 |
| c1ccc2[nH]cnc2c1 [Benzimidazole] | 5.67 |
